ChEMBL document CHEMBL2375306, “Antimicrobial peptides containing unnatural amino acid exhibit potent bactericidal activity against ESKAPE pathogens” (Bioorg Med Chem, 2013)
≈ marks a conversion by molar mass, not a printed value. Square brackets hold non-standard residues; d marks the D form. Peptide text beside a SMILES is read from it. * marks the point of attachment. ξ: configuration not given here. X3 = NCCCC[C@H](NC(=O)[C@H](CCCCN)NC(=O)[C@H](CCCCN)NC(=O)[C@H](CCCCN)NCCCC(=O)[C@@H]1Cc2ccccc2CN1*)C(N)=O; Phe(4-NO2) = N[C@@H](Cc1ccc([N+](=O)[O-])cc1)C(=O)O; Pro(3ξ,4ξ-(CH2)4) = O=C(O)[C@H]1NCC2CCCCC21; Pro(3,4-benzo) = O=C(O)[C@H]1NCc2ccccc21; Tic = O=C(O)[C@@H]1Cc2ccccc2CN1; X4 = CC(=O)NC(=O)[C@H](CCCN)N*; Orn = NCCC[C@H](N)C(=O)O

How the values were obtained:
Type in all cases: functional
[1] = tested on: Pseudomonas aeruginosa; test: Antibacterial activity against Pseudomonas aeruginosa PAO1 after 24 hrs by broth microdilution method; details: PAO1, 24 h
[2] = tested on: Staphylococcus aureus; test: Antibacterial activity against methicillin-sensitive Staphylococcus aureus UAMS-1 after 24 hrs by broth microdilution method; details: UAMS-1, 24 h
[3] = tested on: Acinetobacter baumannii; test: Antibacterial activity against Acinetobacter baumannii WRAIR clinical isolate 13 after 24 hrs by broth microdilution method; details: WRAIR clinical isolate 13, 24 h
[4] = tested on: Klebsiella pneumoniae; test: Antibacterial activity against Klebsiella pneumoniae BAMS clinical isolate 07-18 after 24 hrs by broth microdilution method; details: BAMS clinical isolate 07-18, 24 h
[5] = tested on: Enterococcus faecium; test: Antibacterial activity against Enterococcus faecium MMC4 after 24 hrs by broth microdilution method; details: MMC4, 24 h
[6] = tested on: Klebsiella aerogenes; test: Antibacterial activity against Enterobacter aerogenes after 24 hrs by broth microdilution method

SMILES | MBC [1] [µg/mL] | MIC [1] [µg/mL] | MBC [2] [µg/mL] | MIC [2] [µg/mL] | MBC [3] [µg/mL] | MIC [3] [µg/mL] | MBC [4] [µg/mL] | MIC [4] [µg/mL] | MBC [5] [µg/mL] | MIC [5] [µg/mL] | MBC [6] [µg/mL] | MIC [6] [µg/mL]
CC(=O)NCC(=O)N[C@@H](Cc1ccccc1)C(=O)N1Cc2ccccc2C[C@H]1C(=O)N1CC2CCCCC2[C@H]1C(=O)NCC(=O)N[C@@H](CC(=O)O)C(=O)N[C@@H](CCCCN)C(=O)N1Cc2ccccc2C[C@H]1C(=O)N1CC2CCCCC2[C@H]1C(=O)NCC(=O)N[C@@H](Cc1ccccc1)C(=O)N1Cc2ccccc2C[C@H]1C(=O)N1CC2CCCCC2[C@H]1C(=O)NCC(=O)N[C@@H](CC(=O)O)C(=O)N[C@@H](CCCCN)C(=O)N1Cc2ccccc2C[C@H]1C(=O)N[C@@H](CCCCN)C(=O)N[C@@H](CCCCN)C(=O)N[C@@H](CCCCN)C(=O)N[C@@H](CCCCN)C(N)=O (stereo partly drawn) (Ac-GF[Tic][Pro(3ξ,4ξ-(CH2)4)]GDK[Tic][Pro(3ξ,4ξ-(CH2)4)]GF[Tic][Pro(3ξ,4ξ-(CH2)4)]GDK[Tic]KKKK-NH2) | > 100 | > 100 | > 100 | > 100 | 25 (≈ 9.36 µM) | 12.5 (≈ 4.68 µM) | 100 (≈ 37.4 µM) | 100 (≈ 37.4 µM) | 50 (≈ 18.7 µM) | 12.5 (≈ 4.68 µM) | > 100 | > 100
CC(=O)NCC(=O)N[C@@H](Cc1ccccc1)C(=O)N1Cc2ccccc2C[C@H]1C(=O)N1CC2CCCCC2[C@H]1C(=O)NCC(=O)N[C@@H](CCCN)C(=O)N1Cc2ccccc2C[C@H]1C(=O)N1CC2CCCCC2[C@H]1C(=O)NCC(=O)N[C@@H](Cc1ccccc1)C(=O)N1Cc2ccccc2C[C@H]1C(=O)N1CC2CCCCC2[C@H]1C(=O)NCC(=O)N[C@@H](CCCN)C(=O)N1Cc2ccccc2C[C@H]1C(=O)N[C@@H](CCCN)C(=O)N[C@@H](CCCN)C(=O)N[C@@H](CCCN)C(=O)N[C@@H](CCCN)C(=O)NC(C)=O (stereo partly drawn) (Ac-GF[Tic][Pro(3ξ,4ξ-(CH2)4)]G[Orn][Tic][Pro(3ξ,4ξ-(CH2)4)]GF[Tic][Pro(3ξ,4ξ-(CH2)4)]G[Orn][Tic][Orn][Orn][Orn]-X4) | 50 (≈ 20.8 µM) | 50 (≈ 20.8 µM) | 100 (≈ 41.7 µM) | 100 (≈ 41.7 µM) | 25 (≈ 10.4 µM) | 6.25 (≈ 2.61 µM) | 50 (≈ 20.8 µM) | 50 (≈ 20.8 µM) | 50 (≈ 20.8 µM) | 12.5 (≈ 5.21 µM) | > 100 | 100 (≈ 41.7 µM)
CC(=O)NCC(=O)N[C@@H](Cc1ccccc1)C(=O)N1Cc2ccccc2C[C@H]1C(=O)N1CC2CCCCC2[C@H]1C(=O)NCC(=O)N[C@@H](CCCCN)C(=O)N1Cc2ccccc2C[C@H]1C(=O)N1CC2CCCCC2[C@H]1C(=O)NCC(=O)N[C@@H](Cc1ccccc1)C(=O)N1Cc2ccccc2C[C@H]1C(=O)N1CC2CCCCC2[C@H]1C(=O)NCC(=O)N[C@@H](CCCCN)C(=O)N1Cc2ccccc2C[C@H]1C(=O)CCCN[C@@H](CCCCN)C(=O)N[C@@H](CCCCN)C(=O)N[C@@H](CCCCN)C(=O)N[C@@H](CCCCN)C(N)=O (stereo partly drawn) (Ac-GF[Tic][Pro(3ξ,4ξ-(CH2)4)]GK[Tic][Pro(3ξ,4ξ-(CH2)4)]GF[Tic][Pro(3ξ,4ξ-(CH2)4)]GK-X3) | > 100 | > 100 | > 100 | > 100 | 50 (≈ 20.1 µM) | 12.5 (≈ 5.03 µM) | > 100 | > 100 | > 100 | 50 (≈ 20.1 µM) | > 100 | > 100
CC(=O)NCC(=O)N[C@@H](Cc1ccc([N+](=O)[O-])cc1)C(=O)N1Cc2ccccc2C[C@H]1C(=O)N1CC2CCCCC2[C@H]1C(=O)NCC(=O)N[C@@H](CCCCN)C(=O)N1Cc2ccccc2C[C@H]1C(=O)N1CC2CCCCC2[C@H]1C(=O)NCC(=O)N[C@@H](Cc1ccc([N+](=O)[O-])cc1)C(=O)N1Cc2ccccc2C[C@H]1C(=O)N1CC2CCCCC2[C@H]1C(=O)NCC(=O)N[C@@H](CCCCN)C(=O)N1Cc2ccccc2C[C@H]1C(=O)N[C@@H](CCCCN)C(=O)N[C@@H](CCCCN)C(=O)N[C@@H](CCCCN)C(=O)N[C@@H](CCCCN)C(N)=O (stereo partly drawn) (Ac-G[Phe(4-NO2)][Tic][Pro(3ξ,4ξ-(CH2)4)]GK[Tic][Pro(3ξ,4ξ-(CH2)4)]G[Phe(4-NO2)][Tic][Pro(3ξ,4ξ-(CH2)4)]GK[Tic]KKKK-NH2) | 100 (≈ 39.5 µM) | 50 (≈ 19.8 µM) | > 100 | 100 (≈ 39.5 µM) | 12.5 (≈ 4.94 µM) | 12.5 (≈ 4.94 µM) | 50 (≈ 19.8 µM) | 50 (≈ 19.8 µM) | 50 (≈ 19.8 µM) | 25 (≈ 9.88 µM) | 100 (≈ 39.5 µM) | 100 (≈ 39.5 µM)
CC(=O)NCC(=O)N[C@@H](Cc1ccccc1)C(=O)N1Cc2ccccc2C[C@H]1C(=O)N1CC2CCCCC2[C@H]1C(=O)NCC(=O)N[C@@H](Cc1c[nH]c2ccccc12)C(=O)N1Cc2ccccc2C[C@H]1C(=O)N1CC2CCCCC2[C@H]1C(=O)NCC(=O)N[C@@H](Cc1ccccc1)C(=O)N1Cc2ccccc2C[C@H]1C(=O)N1CC2CCCCC2[C@H]1C(=O)NCC(=O)N[C@@H](Cc1c[nH]c2ccccc12)C(=O)N1Cc2ccccc2C[C@H]1C(=O)N[C@@H](CCCCN)C(=O)N[C@@H](CCCCN)C(=O)N[C@@H](CCCCN)C(=O)N[C@@H](CCCCN)C(N)=O (stereo partly drawn) (Ac-GF[Tic][Pro(3ξ,4ξ-(CH2)4)]GW[Tic][Pro(3ξ,4ξ-(CH2)4)]GF[Tic][Pro(3ξ,4ξ-(CH2)4)]GW[Tic]KKKK-NH2) | > 100 | > 100 | > 100 | > 100 | 100 (≈ 39.1 µM) | 25 (≈ 9.78 µM) | > 100 | > 100 | 100 (≈ 39.1 µM) | 25 (≈ 9.78 µM) | > 100 | > 100
CC(C)C[C@H](NC(=O)[C@@H](N)CCCCN)C(=O)N1Cc2ccccc2C[C@H]1C(=O)N1CC2CCCCC2[C@H]1C(=O)N[C@@H](CCCCN)C(=O)N1Cc2ccccc2C[C@H]1C(=O)N1CC2CCCCC2[C@H]1C(=O)NC(=O)[C@H](Cc1ccccc1)NCC(=O)N1Cc2ccccc2C[C@H]1C(=O)N1CC2CCCCC2[C@H]1C(=O)N[C@@H](CCCCN)C(=O)N1Cc2ccccc2C[C@H]1C(=O)N1CC2CCCCC2[C@H]1C(=O)NC(=O)[C@H](Cc1ccccc1)NCC(=O)N1Cc2ccccc2C[C@H]1C(=O)N1CC2CCCCC2[C@H]1C(=O)N[C@@H](CCCCN)C(=O)N1Cc2ccccc2C[C@H]1C(=O)N1CC2CCCCC2[C@H]1C(=O)N[C@@H](CCCCN)C(=O)N[C@@H](CCCCN)C(=O)N[C@@H](CCCCN)C(=O)N[C@@H](CCCCN)C(N)=O (stereo partly drawn) | 50 (≈ 14.6 µM) | 50 (≈ 14.6 µM) | 25 (≈ 7.3 µM) | 25 (≈ 7.3 µM) | 50 (≈ 14.6 µM) | 12.5 (≈ 3.65 µM) | 100 (≈ 29.2 µM) | 50 (≈ 14.6 µM) | 25 (≈ 7.3 µM) | 6.25 (≈ 1.82 µM) | 100 (≈ 29.2 µM) | 100 (≈ 29.2 µM)
CC(C)C[C@H](NC(=O)[C@@H](N)CCCCN)C(=O)N1Cc2ccccc2C[C@H]1C(=O)N1CC2CCCCC2[C@H]1C(=O)NCC(=O)N[C@@H](CCCCN)C(=O)N1Cc2ccccc2C[C@H]1C(=O)N1CC2CCCCC2[C@H]1C(=O)NCC(=O)N[C@@H](Cc1ccccc1)C(=O)N1Cc2ccccc2C[C@H]1C(=O)N1CC2CCCCC2[C@H]1C(=O)NCC(=O)N[C@@H](CCCCN)C(=O)N1Cc2ccccc2C[C@H]1C(=O)N1CC2CCCCC2[C@H]1C(=O)NCC(=O)N[C@@H](Cc1ccccc1)C(=O)N1Cc2ccccc2C[C@H]1C(=O)N1CC2CCCCC2[C@H]1C(=O)NCC(=O)N[C@@H](CCCCN)C(=O)N1Cc2ccccc2C[C@H]1C(=O)N1CC2CCCCC2[C@H]1C(=O)N[C@@H](CCCCN)C(=O)N[C@@H](CCCCN)C(=O)N[C@@H](CCCCN)C(=O)N[C@@H](CCCCN)C(N)=O (stereo partly drawn) (H-KL[Tic][Pro(3ξ,4ξ-(CH2)4)]GK[Tic][Pro(3ξ,4ξ-(CH2)4)]GF[Tic][Pro(3ξ,4ξ-(CH2)4)]GK[Tic][Pro(3ξ,4ξ-(CH2)4)]GF[Tic][Pro(3ξ,4ξ-(CH2)4)]GK[Tic][Pro(3ξ,4ξ-(CH2)4)]KKKK-NH2) | 50 (≈ 13.9 µM) | 50 (≈ 13.9 µM) | 50 (≈ 13.9 µM) | 50 (≈ 13.9 µM) | 12.5 (≈ 3.47 µM) | 12.5 (≈ 3.47 µM) | 50 (≈ 13.9 µM) | 50 (≈ 13.9 µM) | 25 (≈ 6.95 µM) | 6.25 (≈ 1.74 µM) | 50 (≈ 13.9 µM) | 50 (≈ 13.9 µM)
CC(=O)NCC(=O)N[C@@H](Cc1ccccc1)C(=O)N1Cc2ccccc2[C@H]1C(=O)N1CC2CCCCC2[C@H]1C(=O)NCC(=O)N[C@@H](CCCCN)C(=O)N1Cc2ccccc2[C@H]1C(=O)N1CC2CCCCC2[C@H]1C(=O)NCC(=O)N[C@@H](Cc1ccccc1)C(=O)N1Cc2ccccc2[C@H]1C(=O)N1CC2CCCCC2[C@H]1C(=O)NCC(=O)N[C@@H](CCCCN)C(=O)N1Cc2ccccc2C[C@H]1C(=O)N[C@@H](CCCCN)C(=O)N[C@@H](CCCCN)C(=O)N[C@@H](CCCCN)C(=O)N[C@@H](CCCCN)C(N)=O (stereo partly drawn) (Ac-GF[Pro(3,4-benzo)][Pro(3ξ,4ξ-(CH2)4)]GK[Pro(3,4-benzo)][Pro(3ξ,4ξ-(CH2)4)]GF[Pro(3,4-benzo)][Pro(3ξ,4ξ-(CH2)4)]GK[Tic]KKKK-NH2) | > 100 | > 100 | > 100 | > 100 | 12.5 (≈ 5.21 µM) | 12.5 (≈ 5.21 µM) | > 100 | > 100 | 100 (≈ 41.7 µM) | 12.5 (≈ 5.21 µM) | > 100 | > 100
CC(=O)NCC(=O)N[C@@H](CC(=O)O)C(=O)N[C@@H](Cc1ccccc1)C(=O)N1Cc2ccccc2C[C@H]1C(=O)N1CC2CCCCC2[C@H]1C(=O)NCC(=O)N[C@@H](CCCCN)C(=O)N1Cc2ccccc2C[C@H]1C(=O)N1CC2CCCCC2[C@H]1C(=O)NCC(=O)N[C@@H](CC(=O)O)C(=O)N[C@@H](Cc1ccccc1)C(=O)N1Cc2ccccc2C[C@H]1C(=O)N1CC2CCCCC2[C@H]1C(=O)NCC(=O)N[C@@H](CCCCN)C(=O)N1Cc2ccccc2C[C@H]1C(=O)N[C@@H](CCCCN)C(=O)N[C@@H](CCCCN)C(=O)N[C@@H](CCCCN)C(=O)N[C@@H](CCCCN)C(N)=O (stereo partly drawn) (Ac-GDF[Tic][Pro(3ξ,4ξ-(CH2)4)]GK[Tic][Pro(3ξ,4ξ-(CH2)4)]GDF[Tic][Pro(3ξ,4ξ-(CH2)4)]GK[Tic]KKKK-NH2) | 50 (≈ 18.7 µM) | 50 (≈ 18.7 µM) | 100 (≈ 37.4 µM) | 100 (≈ 37.4 µM) | 12.5 (≈ 4.68 µM) | 12.5 (≈ 4.68 µM) | 100 (≈ 37.4 µM) | 50 (≈ 18.7 µM) | 50 (≈ 18.7 µM) | 12.5 (≈ 4.68 µM) | 100 (≈ 37.4 µM) | 100 (≈ 37.4 µM)
